The text below walks through data of patent US8168651B2, “Protein kinase modulators” (Cylene Pharmaceuticals, Inc., priority 2008, dated 2012).

What is called IC50 is the concentration at which inhibition is half-maximal.

Read-outs that look alike come from different tables or passages of the source.

For one experiment, the target named is recombinant human PIM1 (Homo sapiens (Human), UniProt P11309). The experiment is described as follows: PIM-1 kinase activity in cell-free in vitro assay. The format is biochemical. The settings on record: for inhibition at 0.5 µM: 500 nM compound, read-out: PIM-1: % inh 500 nM.
A further experiment concerns the target recombinant human CK2 (Homo sapiens (Human), UniProt P68400). The experiment is described as follows: CK2 assay (cell-free, 33P-ATP filter plate). It counts as biochemical. The settings on record: 500 nM compound, read-out: CK2: % inh 500 nM.

recombinant human CK2, sequence (P68400 whole entry): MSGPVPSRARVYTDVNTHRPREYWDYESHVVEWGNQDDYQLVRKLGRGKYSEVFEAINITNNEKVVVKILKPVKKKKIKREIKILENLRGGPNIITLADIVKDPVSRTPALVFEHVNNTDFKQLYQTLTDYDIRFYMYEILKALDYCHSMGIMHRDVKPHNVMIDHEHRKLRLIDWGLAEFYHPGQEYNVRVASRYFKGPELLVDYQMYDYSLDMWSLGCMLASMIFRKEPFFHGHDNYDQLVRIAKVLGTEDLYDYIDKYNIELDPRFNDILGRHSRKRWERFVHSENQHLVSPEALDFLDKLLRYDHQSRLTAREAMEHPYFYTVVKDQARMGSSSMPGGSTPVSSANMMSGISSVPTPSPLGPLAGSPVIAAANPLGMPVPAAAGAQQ
recombinant human CK2, sequence (P67870 whole entry partner): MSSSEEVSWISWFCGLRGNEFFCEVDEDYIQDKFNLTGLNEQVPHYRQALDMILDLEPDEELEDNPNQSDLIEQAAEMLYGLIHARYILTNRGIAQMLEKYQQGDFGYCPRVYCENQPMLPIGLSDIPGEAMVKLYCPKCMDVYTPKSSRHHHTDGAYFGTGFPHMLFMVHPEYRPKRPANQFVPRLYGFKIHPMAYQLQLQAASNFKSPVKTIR
recombinant human PIM1, sequence (P11309 whole entry): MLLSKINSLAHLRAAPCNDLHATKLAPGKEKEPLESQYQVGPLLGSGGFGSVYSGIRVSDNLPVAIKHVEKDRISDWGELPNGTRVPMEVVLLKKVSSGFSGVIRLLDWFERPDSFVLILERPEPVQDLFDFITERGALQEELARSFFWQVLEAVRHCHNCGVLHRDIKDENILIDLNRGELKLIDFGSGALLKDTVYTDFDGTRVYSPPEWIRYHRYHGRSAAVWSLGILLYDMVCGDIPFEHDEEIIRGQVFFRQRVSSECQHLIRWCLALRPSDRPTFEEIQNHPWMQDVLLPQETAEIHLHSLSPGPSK

Turning to `COC(=O)c1ccc2c(c1)nc(Nc1ccc(F)c(Cl)c1)c1ncncc12`, the inhibition at 0.5 µM is -17.9% on recombinant human PIM1 (cell-free) and 6.26% at recombinant human CK2 (cell-free).
Regarding `Cc1noc(-c2ccc3c(c2)nc(Nc2ccccc2)c2ccncc23)n1`, the inhibition at 0.5 µM stood at 32.7% at recombinant human PIM1 (cell-free) and 27.2% at recombinant human CK2 (cell-free). In addition, the IC50 at recombinant human PIM1 (cell-free) is over 1.1 µM.
`CNc1ncc2c(n1)c(Nc1ccccc1)nc1cc(C(=O)OC)ccc12`: the figures for the inhibition at 0.5 µM at recombinant human PIM1 (cell-free assay) and at recombinant human CK2 (cell-free assay) were -9.76% and -12.1%, respectively.
For the molecule `CCN1CCCC1CNc1nc2cc(C#N)ccc2c2cscc12` (stereo not drawn), the inhibition at 0.5 µM came to 6.89% on recombinant human PIM1 (cell-free assay) and 20.7% on recombinant human CK2 (cell-free assay).
Consider `CN(C)CCNc1nc2cc(-c3nnn[nH]3)ccc2c2cscc12`, for which, on recombinant human PIM1 (cell-free assay), the inhibition at 0.5 µM is 89.7% and the IC50 amounted to 0.087 µM. In addition, the inhibition at 0.5 µM on recombinant human CK2 (cell-free assay) is 66%.
The corresponding values for `CCN1CCCC1CNc1nc2cc(-c3nnn[nH]3)ccc2c2cscc12` (stereo not drawn) are 95.9%, 0.079 µM and 72.8%.
Regarding `CN1CCCCC1CNc1nc2cc(-c3nnn[nH]3)ccc2c2cscc12` (stereo not drawn), the inhibition at 0.5 µM on recombinant human PIM1 (cell-free assay) came out at 93.9%; at recombinant human CK2 (cell-free assay), 57.4%. For the same molecule, the IC50 on recombinant human PIM1 (cell-free assay) worked out at 0.054 µM.
The corresponding values for `CCN1CCCC1CNc1nc2cc(C(=O)O)ccc2c2cnccc12` (stereo not drawn) are 79.4%, 107% and 0.155 µM.
As for `CN1CCCCC1CNc1nc2cc(C(=O)O)ccc2c2cnccc12` (stereo not drawn), on recombinant human PIM1 (cell-free assay), the inhibition at 0.5 µM was found to be 82.5% and the IC50 came to 0.211 µM. Moreover, at recombinant human CK2 (cell-free assay), the inhibition at 0.5 µM stood at 103%.
For the molecule `CN1CCCCC1CNc1nc2cc(C(=O)O)ccc2c2sccc12` (stereo not drawn), the inhibition at 0.5 µM turned out to be 88% on recombinant human PIM1 (cell-free assay) and 80.1% on recombinant human CK2 (cell-free assay). Further, the IC50 at recombinant human PIM1 (cell-free assay) stood at 0.104 µM.
Take `CCN1CCCC1CNc1nc2cc(C(=O)O)ccc2c2sccc12` (stereo not drawn): on recombinant human PIM1 (cell-free assay), the inhibition at 0.5 µM worked out at 93.3% and the IC50 was 0.1 µM. Moreover, the inhibition at 0.5 µM on recombinant human CK2 (cell-free assay) came to 92.8%.
`CCN1CCCC1CNc1nc2cc(C#N)ccc2c2ccsc12` (stereo not drawn): the inhibition at 0.5 µM on recombinant human PIM1 (cell-free assay) is -9.29%; on recombinant human CK2 (cell-free assay), -29.4%.
As to `CC(C)(C)OC(=O)N1CCC(Nc2nc3cc(C#N)ccc3c3ccsc23)CC1`, the inhibition at 0.5 µM was -29.4% at recombinant human PIM1 (cell-free assay) and -17% at recombinant human CK2 (cell-free assay).
The corresponding values for `CN(C)CCNc1nc2cc(C#N)ccc2c2ccsc12` are 115% and -16.8%.
`CN1CCCCC1CNc1nc2cc(C#N)ccc2c2ccsc12` (stereo not drawn): the inhibition at 0.5 µM on recombinant human PIM1 (cell-free assay) was 59.5%; at recombinant human CK2 (cell-free assay) it was 5.51%.
Turning to `CCN1CCCC1CNc1nc2cc(-c3nnn[nH]3)ccc2c2ccsc12` (stereo not drawn), the inhibition at 0.5 µM on recombinant human PIM1 (cell-free assay) is 80%; on recombinant human CK2 (cell-free assay) it was 1.86%.
`c1cc2c(s1)c(NC1CCNCC1)nc1cc(-c3nnn[nH]3)ccc12`: on recombinant human PIM1 (cell-free assay), the inhibition at 0.5 µM is 111% and the IC50 is 0.138 µM. Also, the inhibition at 0.5 µM at recombinant human CK2 (cell-free assay) amounted to 53.7%.
`CN(C)CCNc1nc2cc(-c3nnn[nH]3)ccc2c2ccsc12`: at recombinant human PIM1 (cell-free assay), the inhibition at 0.5 µM amounted to 99.2% and the IC50 came to 0.267 µM. Further, the inhibition at 0.5 µM on recombinant human CK2 (cell-free assay) was 24.2%.
Take `CN1CCCCC1CNc1nc2cc(-c3nnn[nH]3)ccc2c2ccsc12` (stereo not drawn): the results for the inhibition at 0.5 µM on recombinant human PIM1 (cell-free assay) and on recombinant human CK2 (cell-free assay) were 14.7% and -29.1%, respectively.
For the molecule `COCCNc1nc2cc(C#N)ccc2c2sccc12`, the inhibition at 0.5 µM on recombinant human PIM1 (cell-free assay) was -30.6%; at recombinant human CK2 (cell-free assay) it was -18%.
The corresponding values for `COC(C)(C)CNc1nc2cc(C#N)ccc2c2sccc12` are -30% and -17.1%.
The corresponding values for `COCCNc1nc2cc(-c3nnn[nH]3)ccc2c2sccc12` are 65% and 47.2%.
Regarding `OCCNc1nc2cc(-c3nnn[nH]3)ccc2c2sccc12`, on recombinant human PIM1 (cell-free assay), the inhibition at 0.5 µM was found to be 101% and the IC50 is 0.143 µM. For the same molecule, the inhibition at 0.5 µM on recombinant human CK2 (cell-free assay) is 51.3%.
Regarding `N#Cc1ccc2c(c1)nc(Oc1ccccc1)c1ccsc12`, the inhibition at 0.5 µM on recombinant human PIM1 (cell-free assay) was -38.6%; on recombinant human CK2 (cell-free assay) it was -54.2%.
With `COC(=O)c1cccc2c1[nH]c(=O)c1ccncc12`, the inhibition at 0.5 µM is -70.5% on recombinant human PIM1 (cell-free assay) and 16.7% on recombinant human CK2 (cell-free assay).
For `N#Cc1ccc2c(c1)nc(OCC(F)(F)F)c1ccsc12`, the inhibition at 0.5 µM is -50.2% on recombinant human PIM1 (cell-free assay) and -9.05% on recombinant human CK2 (cell-free assay).
For the molecule `N#Cc1ccc2c(c1)nc(OCc1ccccc1)c1ccsc12`, the inhibition at 0.5 µM is -18.4% at recombinant human PIM1 (cell-free assay) and 1.85% at recombinant human CK2 (cell-free assay).
The corresponding values for `CN(C)CCOc1nc2cc(C#N)ccc2c2sccc12` are -43.2% and -18%.
The corresponding values for `N#Cc1ccc2c(c1)nc(NCCN(CCO)CCO)c1ccsc12` are -17.7% and -9.97%.
The corresponding values for `N#Cc1ccc2c(c1)nc(NCCC(F)(F)F)c1ccsc12` are -89.6% and -7.76%.
As for `N#Cc1ccc2c(c1)nc(NCC(F)(F)F)c1ccsc12`, the inhibition at 0.5 µM at recombinant human PIM1 (cell-free assay) was -32%; at recombinant human CK2 (cell-free assay) it was -18.4%.
The corresponding values for `c1ccc(COc2nc3cc(-c4nnn[nH]4)ccc3c3sccc23)cc1` are -6.97% and 5.71%.
The corresponding values for `CN(C)CCOc1nc2cc(-c3nnn[nH]3)ccc2c2sccc12` are 91.6% and 31.4%.
The corresponding values for `FC(F)(F)COc1nc2cc(-c3nnn[nH]3)ccc2c2sccc12` are 32.3% and 33%.
Regarding `FC(F)(F)CNc1nc2cc(-c3nnn[nH]3)ccc2c2sccc12`, the inhibition at 0.5 µM is 93.2% on recombinant human PIM1 (cell-free assay) and 49% on recombinant human CK2 (cell-free assay).
Regarding `FC(F)(F)CCNc1nc2cc(-c3nnn[nH]3)ccc2c2sccc12`, the inhibition at 0.5 µM at recombinant human PIM1 (cell-free assay) was 92.3%; at recombinant human CK2 (cell-free assay), 58.4%.
The corresponding values for `CN1CCC(N(C)c2nc3cc(CN)ccc3c3sccc23)C1` (stereo not drawn) are -39.8% and -35.3%.
Regarding `CN1CCC(N(C)c2nc3cc(CNC(=O)Nc4cccc(Cl)c4)ccc3c3sccc23)C1` (stereo not drawn), the inhibition at 0.5 µM at recombinant human PIM1 (cell-free assay) was -38.5%; at recombinant human CK2 (cell-free assay), -50.4%.
The corresponding values for `O=C(O)c1ccc2c(c1)nc(NC1CCCCC1)c1ccncc12` are 64.8% and 95.8%.
For the molecule `O=C(O)c1ccc2c(c1)nc(NC1CCCC1)c1ccncc12`, the inhibition at 0.5 µM amounted to 106% on recombinant human PIM1 (cell-free assay) and 101% on recombinant human CK2 (cell-free assay). In addition, at recombinant human PIM1 (cell-free assay), the IC50 amounted to 0.565 µM.
Consider `N#Cc1ccc2c(c1)nc(Nc1cccc(F)c1)c1ccsc12`, for which the inhibition at 0.5 µM on recombinant human PIM1 (cell-free assay) was -4.85%; at recombinant human CK2 (cell-free assay), 3.06%.
Turning to `OCCN(CCO)CCNc1nc2cc(-c3nnn[nH]3)ccc2c2sccc12`, on recombinant human PIM1 (cell-free assay), the inhibition at 0.5 µM was determined as 118% and the IC50 stood at 0.116 µM. Moreover, on recombinant human CK2 (cell-free assay), the inhibition at 0.5 µM worked out at 50.7%.
With `N#Cc1ccc2c(c1)nc(Oc1ccc(F)c(F)c1)c1ccsc12`, the inhibition at 0.5 µM was 27.8% at recombinant human PIM1 (cell-free assay) and -9.99% on recombinant human CK2 (cell-free assay).
For `N#Cc1ccc2c(c1)nc(Oc1ccc3ncccc3c1)c1ccsc12`, the figures for the inhibition at 0.5 µM on recombinant human PIM1 (cell-free assay) and at recombinant human CK2 (cell-free assay) were -22.2% and -7.33%, respectively.
The corresponding values for `N#Cc1ccc2c(c1)nc(Oc1ccc(F)cc1)c1ccsc12` are 10% and -3.78%.
Take `CC(=O)c1ccc(Oc2nc3cc(C#N)ccc3c3sccc23)cc1`: the inhibition at 0.5 µM is 1.38% on recombinant human PIM1 (cell-free assay) and -17.9% on recombinant human CK2 (cell-free assay).
As to `N#Cc1ccc2c(c1)nc(Oc1cccc(Cl)c1)c1ccsc12`, the inhibition at 0.5 µM at recombinant human PIM1 (cell-free assay) was 10.6%; at recombinant human CK2 (cell-free assay), -10.8%.
The corresponding values for `Cc1cc2c(cc1OCc1ccccc1)[nH]c(=O)c1ccncc12` are -10.1% and -7.77%.
The corresponding values for `O=c1[nH]c2cnccc2c2cnccc12` are 19.8% and 7.5%.
On to `NCc1ccc2c(c1)nc(Nc1cccc(F)c1)c1ccsc12`, for which the inhibition at 0.5 µM is -16.4% on recombinant human PIM1 (cell-free assay) and -8.77% at recombinant human CK2 (cell-free assay).
`Fc1cccc(Nc2nc3cc(CN(Cc4ccccc4)Cc4ccccc4)ccc3c3sccc23)c1`: the inhibition at 0.5 µM is 2.98% on recombinant human PIM1 (cell-free assay) and -2.29% at recombinant human CK2 (cell-free assay).
Regarding `Cc1cc(NC(=O)NCc2ccc3c(c2)nc(Nc2cccc(F)c2)c2ccsc23)c(C(F)(F)F)o1`, the inhibition at 0.5 µM on recombinant human PIM1 (cell-free assay) is -17.5%; at recombinant human CK2 (cell-free assay), -9.99%.
With `Cc1noc(C)c1NC(=O)NCc1ccc2c(c1)nc(Nc1cccc(F)c1)c1ccsc12`, the inhibition at 0.5 µM on recombinant human PIM1 (cell-free assay) was -11.2%; at recombinant human CK2 (cell-free assay), -4.71%.
The corresponding values for `Cc1nn(C)c(C)c1NC(=O)NCc1ccc2c(c1)nc(Nc1cccc(F)c1)c1ccsc12` are 11% and -5.43%.
The corresponding values for `O=c1[nH]c2cc(F)ccc2c2cnccc12` are 15.3% and -1.1%.
Turning to `O=c1[nH]c2ccc(OC(F)(F)F)cc2c2cnccc12`, the inhibition at 0.5 µM on recombinant human PIM1 (cell-free assay) is 9.09%; at recombinant human CK2 (cell-free assay) it was 1.22%.
Turning to `COC(=O)c1cccc2c1nc(Cl)c1ccncc12` [drawing 2000], the inhibition at 0.5 µM is -29.2% at recombinant human PIM1 (cell-free assay) and 10.1% at recombinant human CK2 (cell-free assay).
With `O=C(O)c1cccc2c1nc(Nc1cccc(Cl)c1)c1ccncc12` [drawing 2001], the inhibition at 0.5 µM came out at 20.2% on recombinant human PIM1 (cell-free assay) and 15.5% on recombinant human CK2 (cell-free assay).
The corresponding values for `NC(=O)c1cccc2c1nc(Nc1cccc(Cl)c1)c1ccncc12` [drawing 2002] are 78.9% and 36.6%.
On to `COC(=O)c1cccc2c1nc(Nc1ccccc1)c1ccncc12` [drawing 2003], for which the inhibition at 0.5 µM is 3.96% on recombinant human PIM1 (cell-free assay) and -7.87% at recombinant human CK2 (cell-free assay).
The corresponding values for `O=C(O)c1cccc2c1nc(Nc1ccccc1)c1ccncc12` [drawing 2004] are -77.4% and -13.5%.
